Assay results from patent US8603980B2, “Glutamate receptor antagonists and methods of use” (The Johns Hopkins University, priority 2007, dated 2013).
“Also recorded” adds a separate entry of the source. Where two headings read alike, the source gives them in different places.

What was measured:
[1] = test system: human platelets; assay: Platelet activation by FACS (PAC-1 antibody binding or surface P-selectin); assay type: cell-based; details: for AMPA mediated increase in TRAP induced platelet activation: substance added before AMPA, CNQX 100 μM, JST 1 μM
Experimental: It was next determined whether glutamate is a mediator of platelet activation.
Blood was collected into citrate anticoagulant, platelets were isolated as platelet rich plasma (PRP) by centrifugation at 180 g for 15 min, and then diluted in Tyrode's buffer 1:20 for activation flow cytometry studies. […] Washed platelets were resuspended in Tyrode's.

[2] = test system: AMPA receptor subunits GluR1-4 and kainate receptor subunit GluR5; details: cited from earlier work
[3] = test system: megakaryocytes; assay: Whole-cell recordings from freshly isolated megakaryocytes; assay type: cell-based, mouse
Experimental: All procedures using animals were approved by the University of Miyazaki Institutional Animal Care and Use Committee. Megakaryocyte preparation was performed as reported previously (43). Briefly, mouse bone marrow was flushed with Na+-rich external solution (Na+-ES, 150 mM NaCl, 1 mM CaCl2, and 10 mM HEPES, pH adjusted to 7.2 using NMDG-OH). Cells were dispersed by repetitive pipetting, washed three times by gentle centrifugation, resuspended in Na+-ES and used within 90 min of isolation.
Whole-cell recordings were obtained from freshly isolated megakaryocytes using an intracellular solution of the following composition: 150 mM CsCl, 1 mM ethylene glycol bis(-aminoethylether)-N,N,N′,N′-tetraacetic acid (EGTA) and 10 mM HEPES. The pH was adjusted to 7.3 using NMDG-OH. The patch-clamp procedures were similar to those described previously (43). Briefly, the experiments were performed in the tight seal whole-cell configuration at room temperature and electrical signals were acquired with an HEKA EPC-7 (Darmstadt, Germany). The pipette resistances ranged between 2 MΩ and 3 MΩ. Current-voltage relationships (I-V curves) were obtained by clamping the cell to different potentials in 30 mV increments (−30, 0 and +30 mV; each of 35 ms duration) from a holding potential of −60 mV. I-V curves obtained prior to the application of the agonists were subtracted from those (typically two) obtained in the presence of the agonists. The current responses were monitored on a chart recorder (WR7700, Graphtec, Tokyo, Japan) through a lowpass filter (200 Hz). Chemicals and reagents used were purchased from either Sigma (St. Louis, Mo.) or Wako Pure Chemicals (Osaka, Japan). […] The perfusion pipette was located within 30 μm of the cell and the puff pressure was adjusted to obtain rapid and effective agonist application (<10 msec).

[4] = test system: platelets; assay: Intracellular sodium in platelets (SBFI dye, FACS); assay type: cell-based, human; details: for Na+ level / influx in platelets treated with TRAP alone: amiloride 100 μM
Experimental: (§1) Human platelets were isolated from healthy volunteers who had not taken aspirin or NSAID within 10 d, under a protocol approved by The Johns Hopkins University School of Medicine Institutional Review Board (JCCI). Blood was collected into citrate anticoagulant, platelets were isolated as platelet rich plasma (PRP) by centrifugation at 180 g for 15 min, and then diluted in Tyrode's buffer 1:20 for activation flow cytometry studies. To determine surface GluR1, a Fc Blocking antibody was added to reduce non-specific background antibody binding. Mouse platelets were isolated by collection into heparinized Tyrode's buffer and isolated by centrifugation. Washed platelets were resuspended in Tyrode's. Intracellular ion concentrations were performed after incubating platelets diluted 1:20 in Tyrode's buffer with SBFI for 45 minutes prior to experiments.

[5] = test system: platelets; assay: Platelet aggregation (aggregometer) in response to TRAP; assay type: cell-based, human; details: for final aggregation: exogenous addition
Experimental: as §1, with “The functional relevance of targeting platelet AMPAR signaling was assayed by first measuring aggregation in response to TRAP (10 μM) after incubating platelets with control or CNQX (1-100 μM). […] Human” for “Human”

[6] = Tail bleeding time
Experimental: Mice were treated intravenously (i.v.) with control PBS or CNQX (0.1 mg/kg) and 20 mins later tail bleeding times were determined.
6 week old male mice were anesthetized with ketamine and xylazine (80/13 mg/kg) and injected i.v. with either PBS or CNQX:HBC, 0.1 mg/kg of active CNQX. Twenty minutes later the distal 3 mm of the tail was amputated, immersed in 37° C. saline and the time to visual cessation of bleeding recorded.

[7] = Intravital microscopy of FeCl3 induced thrombosis in mesenteric arterioles; assay type: in vivo, mouse; details: for time to total vessel occlusion: FeCl3 injury
[8] = moderate TRAP (5 μM), platelets pre-incubated with substance
[9] = i.v. 20 mins before FeCl3, vs PBS

O=C(O)C1CN(CCCP(=O)(O)O)CCN1 (racemic) [CPP, (±)-3-(2-Carboxypiperazin-4-yl)propyl-1-phosphonic acid]
glutamate mediated increase in TRAP induced platelet activation [1]: does not inhibit

N[C@@H](Cn1nc(Cl)c(=O)[nH]c1=O)C(=O)O [5-chloro-6-azawillardiine]
selectivity for GluR4 over GluR1 and 2 ([2]; at the cost of selectivity for AMPA over kainate receptors): some selectivity

Cc1onc(O)c1C[C@H](N)C(=O)O [AMPA, alpha(α)-amino-3-hydroxy-5-methyl-4-isoxazolepropionic acid]
platelet activation in response to thromboxane mimetic U46619 [1]: increases platelet activation | current on rapid application without cyclothiazide [3]: did not induce a measurable current | inward current following rapid perfusion [3]: 8.6+/−4.5 pA | reversal potential of the agonist-induced current [3]: ~0 mV | Na+ influx in response to TRAP after NHE inhibition ([4]; AMPA added after amiloride (100 μM)): restores Na+ influx | platelets aggregated at 1 min post-TRAP ([5]; AMPA 1 mM pre-treatment): approximately 75% | rate of early aggregation ([5]; AMPA 1 mM, TRAP 10 μM): increases | final aggregation [5]: no effect

CC(C)(C)c1o[nH]c(=O)c1CC(N)C(=O)O (stereo not shown) [ATPA]
platelet activation by FACS [1]: increases platelet activation

N#Cc1cc2[nH]c(=O)c(=O)[nH]c2cc1[N+](=O)[O-] [CNQX, -cyano-7-nitroquinoxaline-2,3-dione]
average tail bleeding time ([6]; 0.1 mg/kg i.v., 20 mins before): approximately 600 sec | TRAP induced platelet activation at low antagonist concentration ([1]; 10 μM CNQX): significantly decreases platelet activation | TRAP induced platelet activation: P-selectin expression ([1]; P-selectin by FACS): decreases platelet activation | TRAP induced platelet activation (PAC-1 antibody binding) [1, 8]: inhibits | AMPA mediated increase in TRAP induced platelet activation [1]: inhibits the effects of AMPA | selectivity for AMPAR subunits versus KA receptor subunits [2]: 20-150 fold | AMPA induced inward current in presence of antagonist ([3]; CNQX 30 μM): blocked | Na+ concentration in platelets treated with AMPA and TRAP ([4]; CNQX 100 μM): decreases Na+ concentrations | Na+ level / influx in platelets treated with TRAP alone ([4]; CNQX 100 μM): decreases Na+ levels | platelet aggregation in response to TRAP ([5]; TRAP 10 μM, CNQX 1-100 μM): dose dependently reduces platelet aggregation | time to total vessel occlusion [7]: prolonged | time to platelet adhesion (greater than 10 platelets adherent for greater than 10 sec) [7, 9]: prolonged | time to thrombus formation (first stable thrombus greater than 20 μm) [7, 9]: prolonged

NCCCNCCCCNCCC(=O)NCCCCCNC(=O)[C@H](CC(N)=O)NC(=O)Cc1ccc(O)cc1O [JST]
AMPA mediated increase in TRAP induced platelet activation [1]: no effect

C=C(C)[C@H]1CN[C@H](C(=O)O)[C@H]1CC(=O)O [KA, kainic acid]
TRAP induced platelet activation (PAC-1 antibody binding) [1, 8]: dose dependently increases | inward current following rapid perfusion ([3]; 100 μM, cyclothiazide in the recording solution): 3.1+/−0.9 pA | current on rapid application without cyclothiazide ([3]; 0.1 or 1 mM, no cyclothiazide): did not induce a measurable current | reversal potential of the agonist-induced current ([3]; I-V curves, cyclothiazide, no obvious rectification): ~0 mV

N[C@@H](Cn1ccc(=O)n(Cc2ccccc2C(=O)O)c1=O)C(=O)O [UBP302]
bleeding time in mice ([6]; mouse, in vivo): prolongs bleeding time | platelet activation by FACS [1]: dose dependently reduces platelet activation | time to total vessel occlusion [7]: prolonged time to total vessel occlusion

N=C(N)NC(=O)c1nc(Cl)c(N)nc1N [amiloride]
Na+ level / influx in platelets treated with TRAP alone ([4]; CNQX 100 μM): reduces Na+ influx

N[C@@H](CCC(=O)O)C(=O)O [glutamate]
ATP mediated platelet activation [1]: not increased | P2Y agonist 2-Me-ADP induced platelet activation [1]: increases | TRAP induced platelet activation (PAC-1 antibody binding) [1]: significantly increases platelet activation; also recorded: dose dependently increases | TRAP induced platelet activation: P-selectin expression [1]: increases agonist induced platelet activation | collagen induced platelet activation [1]: no effect | epinephrine induced platelet activation [1]: significantly increases | increase in platelet activation following low concentration TRAP versus control [1]: approximately two times greater | increase in platelet activation following low concentration thromboxane mimetic versus control [1]: approximately three times greater than control | increase of TRAP induced platelet activation compared to control treated platelets [1]: greater than 50% | platelet activation at high TRAP concentration [1]: no effect | platelet activation in response to thromboxane mimetic U46619 [1]: dose dependently increases | resting platelet activation (PAC-1 antibody binding) [1]: does not increase | final aggregation [5]: no effect
